Molecules are shown by their SMILES. Bounds are passed on as bounds.

T1 sequence (O60678 with tags, fused parts or gaps): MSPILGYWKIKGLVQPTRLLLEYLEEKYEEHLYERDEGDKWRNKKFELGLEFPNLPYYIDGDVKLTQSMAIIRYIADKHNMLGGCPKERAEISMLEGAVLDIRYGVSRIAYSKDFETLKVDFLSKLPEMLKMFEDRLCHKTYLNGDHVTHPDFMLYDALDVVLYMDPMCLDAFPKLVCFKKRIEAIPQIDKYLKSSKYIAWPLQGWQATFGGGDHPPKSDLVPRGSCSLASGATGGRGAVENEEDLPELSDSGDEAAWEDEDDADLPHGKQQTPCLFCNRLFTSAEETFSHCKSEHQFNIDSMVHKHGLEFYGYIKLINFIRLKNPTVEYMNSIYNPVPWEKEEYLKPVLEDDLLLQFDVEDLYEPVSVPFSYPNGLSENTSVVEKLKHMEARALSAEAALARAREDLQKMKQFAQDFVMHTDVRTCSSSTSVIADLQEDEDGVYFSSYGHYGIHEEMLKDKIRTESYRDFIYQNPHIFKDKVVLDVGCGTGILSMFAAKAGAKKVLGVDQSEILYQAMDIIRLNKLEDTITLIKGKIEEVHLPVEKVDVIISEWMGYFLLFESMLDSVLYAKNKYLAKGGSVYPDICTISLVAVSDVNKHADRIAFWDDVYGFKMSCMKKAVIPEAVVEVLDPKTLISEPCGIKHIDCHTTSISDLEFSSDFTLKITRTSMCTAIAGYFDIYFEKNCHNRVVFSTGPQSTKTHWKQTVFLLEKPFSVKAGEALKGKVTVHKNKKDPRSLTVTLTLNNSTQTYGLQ

This test addresses T1, Full-length human PRMT3 (Homo sapiens, UniProt O60678).
T1 construct: GST-tagged PRMT3; made in house; host or cells: E. coli BL21(DE3) Gold (pGEX-KG)
Nature of the test: PRMT3 biochemical assay (3H-SAM Flashplate, peptide substrate). From the text:
General Materials. S-adenosylmethionine (SAM), S-adenosylhomocysteine (SAH), bicine, Tween20, dimethylsulfoxide (DMSO), bovine skin gelatin (BSG),), isopropyl-β-D-thiogalactopyranoside (IPTG), and Tris(2-carboxyethyl)phosphine hydrochloride solution (TCEP) were purchased from Sigma-Aldrich at the highest level of purity possible. ^3H-SAM was purchase from American Radiolabeled Chemicals with a specific activity of 80 Ci/mmol. 384-well streptavidin Flashplates were purchased from PerkinElmer.
Substrates. Peptide containing the classic RMT substrate motif was synthesized with an N-terminal linker-affinity tag motif and a C-terminal amide cap by 21st Century Biochemicals. The peptide was purified by high-performance liquid chromatography (HPLC) to greater than 95% purity and confirmed by liquid chromatography mass spectrometry (LC-MS). The sequence was Biot-Ahx-[…]-amide (SEQ ID NO.:11).
Molecular Biology: : Full-length human PRMT3 (NM_005788.3) isoform 1 transcript clone was amplified from an HEK 293 cDNA library and subcloned into pGEX-KG (GE Life Sciences). The resulting construct encodes an N-terminal GST tag and a thrombin cleavage sequence ([…] […] […] […]) (SEQ ID NO.:12) fused directly to Cys 2 of PRMT3.
Protein Expression. E. coli (BL21(DE3) Gold, Stratagene) made competent by the CaCl2 method were transformed with the PRMT3 construct and ampicillin selection. Protein over-expression was accomplished by growing the PRMT3 expressing E. coli clone and inducing expression with 0.3 mM IPTG at 16° C. The culture was grown for 12 hours, harvested by centrifugation, and stored at −80° C. for purification.
Protein Purification. […] GST-tagged PRMT3 eluted with 25-400 mM phosphate in buffer C. Protein was concentrated and buffer was exchanged to 20 mM Tris, 150 mM NaCl, 5% glycerol, 5 mM β-mercaptoethanol, pH7.8 by ultrafiltration. The purity of recovered protein was 70%.
General Procedure for PRMT3 Enzyme Assays on Peptide Substrates. The assays were all performed in a buffer consisting of 20 mM Bicine (pH=7.6), 1 mM TCEP, 0.005% BSG, and 0.002% Tween 20, prepared on the day of use. Compounds in 100% DMSO (1 ul) were spotted into a polypropylene 384-well V-bottom plates (Greiner) using a Platemate Plus outfitted with a 384-channel head (Thermo Scientific). DMSO (1 ul) was added to Columns 11, 12, 23, 24, rows A-H for the maximum signal control and 1 ul of SAH, a known product and inhibitor of PRMT3, was added to columns 11, 12, 23, 24, rows I-P for the minimum signal control. A cocktail (40 ul) containing the PRMT3 enzyme was added by Multidrop Combi (Thermo-Fisher). The compounds were allowed to incubate with PRMT3 for 30 min at room temperature, then a cocktail (10 ul) containing SAM and peptide was added to initiate the reaction (final volume=51 ul). The final concentrations of the components were as follows: PRMT3 was 0.5 nM, ^3H-SAM was 100 nM, non-radiolabeled SAM was 1.8 uM, peptide was 330 nM, SAH in the minimum signal control wells was 1 mM, and the DMSO concentration was 2%. The assays were stopped by the addition of potassium chloride (10 ul) to a final concentration of 100 mM. 50 ul of the reaction in the 384-well polypropylene plate was then transferred to a 384-well Flashplate and the biotinylated peptides were allowed to bind to the streptavidin surface for at least 1 hour before being washed once with 0.1% Tween20 in a Biotek ELx405 plate washer. The plates were then read in a PerkinElmer TopCount plate reader to measure the quantity of ^3H-labeled peptide bound to the Flashplate surface, measured as disintegrations per minute (dpm) or alternatively, referred to as counts per minute (cpm).
Where dpm=disintegrations per minute, cmpd=signal in assay well, and min and max are the respective minimum and maximum signal controls.
Where top and bottom are the normally allowed to float, but may be fixed at 100 or 0 respectively in a 3-parameter fit. […]
For orientation: IC50 means the concentration that inhibits the measured activity by half. `Cc1ccc(F)cc1-c1n[nH]cc1CN(C)CCN` [Compound 159] displayed a 50% inhibitory concentration (IC50) of over 10 µM. `COc1ccc(F)cc1-c1n[nH]cc1CN(C)CCN` [Compound 160] gave a half-inhibitory concentration (IC50) of over 10 µM. As to `Cc1ccccc1-c1n[nH]cc1CN(C)CCN` [Compound 161], the IC50 is over 10 µM. Molecule `Cc1ccc(-c2n[nH]cc2CN(C)CCN)cc1` [Compound 162] gave a concentration for half-maximal inhibition (IC50) of 3.01 to 10 µM. In the case of `CCN(C)C(=O)c1ccc(-c2n[nH]cc2CN(C)CCN)cc1` [Compound 163], the half-maximal inhibitory concentration (IC50) was over 10 µM. With `CC(C)CN(C)C(=O)c1ccc(-c2n[nH]cc2CN(C)CCN)cc1` [Compound 164], the 50% inhibitory concentration (IC50) is over 10 µM.

With `CCOc1ccc(-c2n[nH]cc2CN(C)CCN)cc1` [Compound 166], the concentration for half-maximal inhibition (IC50) lay in the range of 3.01 to 10 µM. As to `COCCOc1ccc(-c2n[nH]cc2CN(C)CCN)cc1` [Compound 167], the IC50 fell in the range of 3.01 to 10 µM. As to `Cc1[nH]nc(-c2ccc(F)cc2)c1CN(C)CCN` [Compound 169], the IC50 is over 10 µM. For the molecule `CC(C)Cc1ccc(-c2c[nH]nc2CN(C)CCN)cc1` [Compound 170], the IC50 was 3.01 to 10 µM. As to `NCCN(CCO)Cc1c[nH]nc1-c1ccc(F)cc1` [Compound 171], the IC50 is over 10 µM.

`CN(CCN)Cc1c[nH]nc1-c1ccc(OCCN2CCOCC2)cc1` [Compound 172] registered an IC50 of 3.01 to 10 µM.

These data come from patent publication US9346761B2, “Arginine methyltransferase inhibitors and uses thereof” (Epizyme, Inc., priority 2013, dated 2016).
